Read-outs that look alike come from different tables or passages of the source.
Legend:
D2 = D2 (Homo sapiens (Human), UniProt P14416); test: D2 binding assay ([3H] 7-OH-DPAT, HEK293 D2L membranes); conditions: numeric values
Procedure: D2 Binding Assay Protocol
The testing compounds were diluted with DMSO, starting at 2 mM, with 8-points and 5-fold serial dilutions. droperidol was diluted with DMSO, starting at 0.2 mM, with 8-points and 4-fold serial dilutions.
1 μL of a compound of the present disclosure and the reference compound (Table O) was transferred to an assay plate. 1 μL of droperidol was transferred to an assay plate according to the plate map for nonspecific binding (Low control: LC). 1 μL of DMSO was transferred to an assay plate according to the plate map for total binding (High control: HC). Following a plate map, 100 μL of the membrane stock solutions and radio ligand were added into the plate. The plates were sealed and shaken with 300 rpm.
(§1) Unifilter-96 GF/C filter plates were soaked with 50 μL of 0.3% PEI per well for about 0.5 hours at room temperature. When the binding assays were complete, the reaction mixture was filtered through the GF/B filter plates using Perkin Elmer Filtermate Harvester, and each plate was washed 4 times with cold wash buffer. The filter plates were dried for 1 hour at 50° C. After drying, the bottom of the filter plate wells were sealed using Perkin Elmer Unifilter-96 backing seal tape. 50 μL of Perkin Elmer Microscint 20 cocktail was added. The top of the filter plates were sealed with Perkin Elmer TopSeal-A sealing film.
^3H trapped on filters were counted using Perkin Elmer MicroBeta2 Reader. Inhibition constants were calculated using the following equation: […]
The data was analyzed using Prism 5. The model used was “log(inhibitor) vs. response—Variable slope” to fit the data and calculate IC50. The IC50 was then converted to Ki using the following equation: Ki=IC50/(1+L/Kd), wherein L is the radioligand concentration in the reaction system; Kd is the affinity of radioligand to the receptor. As shown in Table Q Compound No. 7 has a lower affinity for D2 when compared to Compounds A-2, A-3, A-4, and A-5.

5-HT2C = 5-HT2C (Homo sapiens (Human), UniProt P28335); test: 5-HT2C binding assay ([3H]-Mesulergine, HEK293 membranes)
H1 = H1 (Homo sapiens (Human), UniProt P35367); test: H1 binding assay ([3H]pyrilamine, HEK293 stable cell line membranes); conditions: Table E, class symbols
Procedure: Example 25. H1 and 5-HT2A Binding Assay Protocol
The testing compounds were diluted with DMSO, starting at 2 mM, with 8-points and 5-fold serial dilutions. Ketanserin and Pyrilamine were diluted with DMSO, starting at 0.2 mM, with 8-points and 5-fold serial dilution.
1 μl of a compounds of the present disclosure and either reference compound (Table C) were transferred to assay plates. 1 μl of 0.2 mM Ketanserin or Pyrilamine was transferred to an assay plate according to the plate map for nonspecific binding (Low control: LC). 1 μl of DMSO was transferred to an assay plate according to plate map for total binding (High control: HC).
100 μlof membrane stocks were dispensed into the plates, following the plate map. 100 of radio ligand was added. The plates were sealed and shaken at 300 rpm at room temperature for 1 hour. The Unifilter-96 GF/C filter plates were soaked with 50 of 0.3% PEI per well for at least 0.5 hour at room temperature.
as §1, with “When” for “Unifilter-96 GF/C filter plates were soaked with 50 μL of 0.3% PEI per well for about 0.5 hours at room temperature. When”, “GF/C” for “the GF/B filter”, “and then” for “and”, “50 degrees.” for “50° C.”, “μl” for “μL”
^3H trapped on filters were counted using Perkin Elmer MicroBeta2 Reader. Inhibition constants were calculated using the following equation:
[formula] The data was analyzed using Prism 5. The model used was “log(inhibitor) vs. response—Variable slope” to fit the data and calculate IC50. The IC50 was then converted to Ki using following equation: Ki=IC50/(1+L/Kd). L is the radioligand concentration in the reaction system; Kd is the affinity of radioligand to the receptor.

5-HT2C, sequence (P28335 33-458): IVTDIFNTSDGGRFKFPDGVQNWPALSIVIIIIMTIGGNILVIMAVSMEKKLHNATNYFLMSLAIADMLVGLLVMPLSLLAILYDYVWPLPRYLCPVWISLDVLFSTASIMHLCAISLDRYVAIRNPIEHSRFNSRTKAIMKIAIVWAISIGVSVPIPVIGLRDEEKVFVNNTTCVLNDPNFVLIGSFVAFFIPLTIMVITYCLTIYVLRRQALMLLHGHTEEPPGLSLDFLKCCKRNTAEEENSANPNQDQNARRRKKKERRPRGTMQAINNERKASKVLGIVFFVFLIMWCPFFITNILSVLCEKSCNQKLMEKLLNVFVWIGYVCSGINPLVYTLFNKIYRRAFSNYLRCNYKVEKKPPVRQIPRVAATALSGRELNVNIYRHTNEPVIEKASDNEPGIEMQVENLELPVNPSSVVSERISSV
H1, sequence (P35367 whole entry): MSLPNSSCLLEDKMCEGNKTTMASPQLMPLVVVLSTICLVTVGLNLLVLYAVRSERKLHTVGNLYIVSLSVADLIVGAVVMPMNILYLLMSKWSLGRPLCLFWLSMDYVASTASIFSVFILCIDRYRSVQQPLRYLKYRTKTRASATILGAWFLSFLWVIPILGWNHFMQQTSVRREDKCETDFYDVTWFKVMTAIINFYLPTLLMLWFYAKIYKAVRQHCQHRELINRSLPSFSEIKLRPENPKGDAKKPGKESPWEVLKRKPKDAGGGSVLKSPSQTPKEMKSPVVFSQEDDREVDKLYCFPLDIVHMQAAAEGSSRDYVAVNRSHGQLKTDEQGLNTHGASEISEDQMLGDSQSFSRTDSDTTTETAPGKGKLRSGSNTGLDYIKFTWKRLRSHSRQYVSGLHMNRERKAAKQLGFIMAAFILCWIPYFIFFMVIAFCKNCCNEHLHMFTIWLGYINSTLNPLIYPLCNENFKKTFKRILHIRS
D2, sequence (P14416 whole entry): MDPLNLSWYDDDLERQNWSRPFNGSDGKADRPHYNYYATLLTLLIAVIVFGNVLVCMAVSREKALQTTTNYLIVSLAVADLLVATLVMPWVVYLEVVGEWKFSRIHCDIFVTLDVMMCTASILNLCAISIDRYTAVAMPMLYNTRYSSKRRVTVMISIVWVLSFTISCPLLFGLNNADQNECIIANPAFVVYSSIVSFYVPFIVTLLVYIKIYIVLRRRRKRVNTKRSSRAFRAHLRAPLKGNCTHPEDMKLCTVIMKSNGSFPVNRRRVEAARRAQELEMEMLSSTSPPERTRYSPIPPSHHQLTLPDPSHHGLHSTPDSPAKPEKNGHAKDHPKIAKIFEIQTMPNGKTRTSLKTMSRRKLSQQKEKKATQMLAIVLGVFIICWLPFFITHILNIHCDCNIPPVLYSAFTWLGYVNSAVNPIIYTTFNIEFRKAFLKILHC

## Cc1ccc2c(c1)Oc1cc(C)ccc1C(N1CCN(CC(C)(C)C(=O)O)CC1)=N2 [Compound No. 7, 3-(4-(3,7-dimethyldibenzo[b,f][1,4]oxazepin-11-yl)piperazin-1-yl)-2,2-dimethylpropanoic acid]
D2
  Ki: > 50 µM
5-HT2C
  Ki: > 0.5 µM
5-HT2C; numeric values
  Ki: 2.22 µM
H1
  Ki: > 0.05 µM
